According to EP4745137A1 (Gluetacs Therapeutics (Shanghai) Co., Ltd., priority 2023, dated 2025):
pIC50: −log10 of the molar value.

Tests used:
MGC803 = experiment: Tumor cell proliferation inhibition (CellTiter-Meiluncell Luminescent Cell Viability Assay), MGC803; conditions: Homo sapiens, MGC-803, 96 h, read-out: inhibitory activity (IC50, nM) against tumor cells proliferation, MGC803
Experimental: (§1) The tumor cells used herein were cultured in a cell culture medium listed in table 2 at 37°C in an incubator with 5% CO2. Prior to experimentation, all cell lines used were correctly identified by STR profiling, and tested negative for mycoplasma contamination using a mycoplasma detection kit through routine screenings.
On the following day, the test compounds of the present disclosure were subjected to serial dilution. […] Subsequently, 0.5 µL of the test compound dilution was transferred into the 96-well plate containing the cells, with each well containing 100 µL of cell culture medium. […] Into the 96-well plate, the diluted test compounds and corresponding detection reagents were added, resulting in final test compound concentrations of 500 nM and 10 nM, respectively.
(§2) After the cells were treated with the compounds of the present disclosure for a specified period (the treatment durations were shown in Table 3), the cell viability assay reagent was added to the culture medium according to the kit's instructions to determine cell viability. […] All controls were treated using the same procedure as the compounds of the present disclosure. The growth inhibition curves for the compounds of the present disclosure were plotted using Prism GraphPad software, and the IC50 values were calculated therefrom.

[1] = molecular target: T1, human Cereblon WT GST-tagged protein (Homo sapiens, UniProt Q96SW2); experiment: CRBN-binding affinity by HTRF (CEREBLON BINDING kit); conditions: HTRF inhibitory activity, CEREBLON BINDING kit; read-out: HTRF IC50
T1 construct: purchased CISBIO 64BDCRBNPEH
T1 sequence (Q96SW2 whole entry): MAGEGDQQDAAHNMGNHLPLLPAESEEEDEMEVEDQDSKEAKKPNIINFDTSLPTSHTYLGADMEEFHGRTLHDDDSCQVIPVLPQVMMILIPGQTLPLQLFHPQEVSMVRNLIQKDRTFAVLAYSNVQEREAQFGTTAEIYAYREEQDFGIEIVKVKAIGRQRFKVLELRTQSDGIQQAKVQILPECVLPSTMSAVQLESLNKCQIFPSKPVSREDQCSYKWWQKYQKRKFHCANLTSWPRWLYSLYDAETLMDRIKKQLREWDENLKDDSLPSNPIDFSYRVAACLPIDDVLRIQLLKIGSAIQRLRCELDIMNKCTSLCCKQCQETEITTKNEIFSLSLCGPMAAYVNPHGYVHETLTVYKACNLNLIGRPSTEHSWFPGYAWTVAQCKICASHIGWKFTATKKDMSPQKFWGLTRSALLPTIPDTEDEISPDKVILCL

Vcap = experiment: Tumor cell proliferation inhibition (CellTiter-Meiluncell Luminescent Cell Viability Assay), Vcap; conditions: Homo sapiens, 96 h, read-out: inhibitory activity (IC50, nM) against tumor cells proliferation, Vcap
Experimental: as §1
(§3) On the following day, the test compounds of the present disclosure were subjected to serial dilution. […] Subsequently, 0.5 µL of the test compound dilution was transferred into the 96-well plate containing the cells, with each well containing 100 µL of cell culture medium. […] Into the 96-well plate, the diluted test compounds and corresponding detection reagents were added, resulting in final test compound concentrations of 500 nM and 10 nM, respectively. The experimental procedure is described below using the diluted 2 µM test compound as an example.
as §2

IKZF1 = molecular target: T2, IKZF1 (Homo sapiens, UniProt Q13422+Q96SW2); experiment: Western-blot assay of substrate protein degradation in hPBMCs, IKZF1; type: cell-based; conditions: 24 hours of compound treatment, compounds tested at 50 nM and 500 nM (concentration of the table not stated)
T2 construct: endogenous in cells; host or cells: hPBMCs (Milecell Biotechnologies)

CCRF-CEM = experiment: Tumor cell proliferation inhibition (CellTiter-Meiluncell Luminescent Cell Viability Assay), CCRF-CEM; conditions: Homo sapiens, 96 h, read-out: inhibitory activity (IC50, nM) against tumor cells proliferation, CCRF-CEM
NCI-H1975 = experiment: Tumor cell proliferation inhibition (CellTiter-Meiluncell Luminescent Cell Viability Assay), NCI-H1975; conditions: Homo sapiens, NCI-H1975, 96 h, read-out: inhibitory activity (IC50, nM) against tumor cells proliferation, H1975
GSPT1 = molecular target: T3, GSPT1 (Homo sapiens, UniProt P15170+Q96SW2); experiment: Western-blot assay of substrate protein degradation in hPBMCs, GSPT1; type: cell-based; conditions: 24 hours of compound treatment, compounds tested at 50 nM and 500 nM (concentration of the table not stated)
T3 construct: endogenous in cells; host or cells: hPBMCs (Milecell Biotechnologies)
T3 sequence (P15170 whole entry): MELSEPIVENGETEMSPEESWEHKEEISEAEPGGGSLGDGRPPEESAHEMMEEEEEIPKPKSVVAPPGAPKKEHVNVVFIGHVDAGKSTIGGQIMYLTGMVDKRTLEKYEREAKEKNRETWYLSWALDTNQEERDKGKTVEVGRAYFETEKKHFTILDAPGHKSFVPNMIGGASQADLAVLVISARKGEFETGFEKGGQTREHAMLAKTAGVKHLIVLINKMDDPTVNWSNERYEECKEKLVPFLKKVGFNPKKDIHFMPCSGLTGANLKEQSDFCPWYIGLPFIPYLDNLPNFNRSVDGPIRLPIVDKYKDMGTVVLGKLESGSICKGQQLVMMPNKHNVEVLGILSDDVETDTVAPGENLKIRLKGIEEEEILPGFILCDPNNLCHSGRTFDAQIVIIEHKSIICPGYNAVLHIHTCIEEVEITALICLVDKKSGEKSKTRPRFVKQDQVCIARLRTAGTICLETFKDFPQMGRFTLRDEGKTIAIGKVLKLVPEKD
T3 sequence (Q96SW2 whole entry): as the sequence (Q96SW2 whole entry) above
T3 sequence (Q16531 whole entry partner): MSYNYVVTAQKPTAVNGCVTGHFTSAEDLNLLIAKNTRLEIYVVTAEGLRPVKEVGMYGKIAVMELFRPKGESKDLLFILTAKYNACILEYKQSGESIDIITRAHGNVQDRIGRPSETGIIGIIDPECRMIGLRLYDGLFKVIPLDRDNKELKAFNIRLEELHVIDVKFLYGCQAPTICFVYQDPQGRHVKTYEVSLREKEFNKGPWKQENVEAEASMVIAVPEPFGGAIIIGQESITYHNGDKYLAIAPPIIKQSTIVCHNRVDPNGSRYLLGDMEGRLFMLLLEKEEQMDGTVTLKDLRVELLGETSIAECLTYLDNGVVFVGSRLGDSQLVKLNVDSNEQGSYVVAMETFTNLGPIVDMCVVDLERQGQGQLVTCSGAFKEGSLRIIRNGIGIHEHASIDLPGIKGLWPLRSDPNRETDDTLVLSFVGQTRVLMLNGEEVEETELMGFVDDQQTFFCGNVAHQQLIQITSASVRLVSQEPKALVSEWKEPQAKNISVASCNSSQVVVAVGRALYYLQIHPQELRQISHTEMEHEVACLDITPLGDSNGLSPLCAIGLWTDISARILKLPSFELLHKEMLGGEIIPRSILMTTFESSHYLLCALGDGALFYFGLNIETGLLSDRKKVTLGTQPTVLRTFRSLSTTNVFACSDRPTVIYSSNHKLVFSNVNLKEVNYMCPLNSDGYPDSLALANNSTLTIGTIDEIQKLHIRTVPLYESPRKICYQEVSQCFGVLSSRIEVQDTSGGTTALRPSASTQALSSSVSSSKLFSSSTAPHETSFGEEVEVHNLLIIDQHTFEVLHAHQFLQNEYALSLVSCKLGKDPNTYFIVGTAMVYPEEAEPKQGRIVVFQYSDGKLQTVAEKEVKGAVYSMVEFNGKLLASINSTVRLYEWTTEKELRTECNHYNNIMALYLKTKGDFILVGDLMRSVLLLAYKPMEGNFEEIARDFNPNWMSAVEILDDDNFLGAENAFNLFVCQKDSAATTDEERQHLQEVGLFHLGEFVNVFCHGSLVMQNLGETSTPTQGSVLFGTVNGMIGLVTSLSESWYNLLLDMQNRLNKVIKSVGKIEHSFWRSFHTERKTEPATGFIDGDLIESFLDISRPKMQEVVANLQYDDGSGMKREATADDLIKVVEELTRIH

WEE1 = molecular target: T4, WEE1 (Homo sapiens, UniProt P30291+Q96SW2); experiment: Western-blot assay of substrate protein degradation in hPBMCs, WEE1; type: cell-based; conditions: 24 hours of compound treatment, compounds tested at 50 nM and 500 nM (concentration of the table not stated)
T4 construct: endogenous in cells; host or cells: hPBMCs (Milecell Biotechnologies)
T4 sequence (P30291 whole entry): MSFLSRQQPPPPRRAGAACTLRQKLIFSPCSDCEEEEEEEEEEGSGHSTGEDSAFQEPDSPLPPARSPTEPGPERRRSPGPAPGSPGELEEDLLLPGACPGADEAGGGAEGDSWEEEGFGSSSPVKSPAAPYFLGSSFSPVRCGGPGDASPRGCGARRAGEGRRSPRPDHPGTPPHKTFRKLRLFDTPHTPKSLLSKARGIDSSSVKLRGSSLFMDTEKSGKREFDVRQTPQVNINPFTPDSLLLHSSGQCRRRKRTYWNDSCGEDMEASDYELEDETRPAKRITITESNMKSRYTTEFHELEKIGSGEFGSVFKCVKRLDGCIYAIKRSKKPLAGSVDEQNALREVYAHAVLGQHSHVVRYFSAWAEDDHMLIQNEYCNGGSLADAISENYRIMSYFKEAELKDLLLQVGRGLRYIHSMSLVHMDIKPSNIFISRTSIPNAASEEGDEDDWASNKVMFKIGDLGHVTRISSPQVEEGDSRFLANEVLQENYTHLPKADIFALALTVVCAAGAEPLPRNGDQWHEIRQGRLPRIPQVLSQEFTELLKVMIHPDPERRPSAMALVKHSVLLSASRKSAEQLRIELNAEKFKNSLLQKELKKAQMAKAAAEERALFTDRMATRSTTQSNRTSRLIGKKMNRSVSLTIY
T4 sequence (Q96SW2 whole entry): as the sequence (Q96SW2 whole entry) above
T4 sequence (Q16531 whole entry partner): as the sequence (Q16531 whole entry partner) above

IKZF3 = molecular target: T5, IKZF3 (Homo sapiens, UniProt Q96SW2+Q9UKT9); experiment: Western-blot assay of substrate protein degradation in hPBMCs, IKZF3; type: cell-based; conditions: 24 hours of compound treatment, compounds tested at 50 nM and 500 nM (concentration of the table not stated)
T5 construct: endogenous in cells; host or cells: hPBMCs (Milecell Biotechnologies)
T5 sequence (Q9UKT9 whole entry): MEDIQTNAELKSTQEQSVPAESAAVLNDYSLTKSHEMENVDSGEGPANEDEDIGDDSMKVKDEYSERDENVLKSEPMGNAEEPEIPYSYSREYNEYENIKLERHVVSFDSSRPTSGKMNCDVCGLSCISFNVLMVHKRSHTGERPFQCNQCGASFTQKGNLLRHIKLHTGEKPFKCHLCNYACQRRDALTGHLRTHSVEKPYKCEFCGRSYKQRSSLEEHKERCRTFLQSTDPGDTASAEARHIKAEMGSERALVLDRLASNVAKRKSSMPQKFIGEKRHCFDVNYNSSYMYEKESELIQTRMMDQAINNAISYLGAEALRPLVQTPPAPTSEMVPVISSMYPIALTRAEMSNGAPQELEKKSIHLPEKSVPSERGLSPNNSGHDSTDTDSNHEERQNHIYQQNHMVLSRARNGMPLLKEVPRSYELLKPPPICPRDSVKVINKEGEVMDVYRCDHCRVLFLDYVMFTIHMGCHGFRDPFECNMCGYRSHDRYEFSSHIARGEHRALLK
T5 sequence (Q96SW2 whole entry): as the sequence (Q96SW2 whole entry) above
T5 sequence (Q16531 whole entry partner): as the sequence (Q16531 whole entry partner) above

SW620 = experiment: Tumor cell proliferation inhibition (CellTiter-Meiluncell Luminescent Cell Viability Assay), SW620; conditions: Homo sapiens, SW-620, 96 h, read-out: inhibitory activity (IC50, nM) against tumor cells proliferation, SW620
Experimental: as §1, §3, §2

MM.1R = experiment: Tumor cell proliferation inhibition (CellTiter-Meiluncell Luminescent Cell Viability Assay), MM.1R; conditions: Homo sapiens, 96 h, read-out: inhibitory activity (IC50, nM) against tumor cells proliferation, MM.1R
IKZF2 = molecular target: T6, IKZF2 (Homo sapiens, UniProt Q96SW2+Q9UKS7); experiment: Western-blot assay of substrate protein degradation in hPBMCs, IKZF2; type: cell-based; conditions: 24 hours of compound treatment, compounds tested at 50 nM and 500 nM (concentration of the table not stated)
T6 construct: endogenous in cells; host or cells: hPBMCs (Milecell Biotechnologies)
T6 sequence (Q9UKS7 whole entry): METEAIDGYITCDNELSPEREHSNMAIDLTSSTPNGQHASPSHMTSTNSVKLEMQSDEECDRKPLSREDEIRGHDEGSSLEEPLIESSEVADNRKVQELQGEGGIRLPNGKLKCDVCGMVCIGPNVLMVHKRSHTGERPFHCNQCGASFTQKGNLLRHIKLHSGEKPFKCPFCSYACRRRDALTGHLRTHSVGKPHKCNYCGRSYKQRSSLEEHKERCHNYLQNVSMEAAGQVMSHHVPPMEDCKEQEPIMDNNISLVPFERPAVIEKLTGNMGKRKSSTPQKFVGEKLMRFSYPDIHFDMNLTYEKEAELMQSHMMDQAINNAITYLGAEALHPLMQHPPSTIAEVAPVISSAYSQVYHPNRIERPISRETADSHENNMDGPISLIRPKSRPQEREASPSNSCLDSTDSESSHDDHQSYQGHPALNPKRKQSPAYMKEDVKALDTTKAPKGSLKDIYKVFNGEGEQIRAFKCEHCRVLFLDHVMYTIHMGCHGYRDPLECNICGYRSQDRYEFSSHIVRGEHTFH
T6 sequence (Q96SW2 whole entry): as the sequence (Q96SW2 whole entry) above
T6 sequence (Q16531 whole entry partner): as the sequence (Q16531 whole entry partner) above

[2] = tested on: Human acute T lymphocytic leukemia cells (Molt-4); experiment: Tumor cell proliferation inhibition (CellTiter-Meiluncell Luminescent Cell Viability Assay), Molt-4; conditions: MOLT-4, 96 h, read-out: inhibitory activity (IC50, nM) against tumor cells proliferation, Molt 4
[3] = tested on: Human breast cancer cells (MDA-MB-231); experiment: Tumor cell proliferation inhibition (CellTiter-Meiluncell Luminescent Cell Viability Assay), MDA-MB-231; conditions: MDA-MB-231, 96 h, read-out: inhibitory activity (IC50, nM) against tumor cells proliferation, MDA-MB-231
Jurkat = experiment: Tumor cell proliferation inhibition (CellTiter-Meiluncell Luminescent Cell Viability Assay), Jurkat; conditions: Homo sapiens, 96 h, read-out: inhibitory activity (IC50, nM) against tumor cells proliferation, Jurkat
SR = experiment: Tumor cell proliferation inhibition (CellTiter-Meiluncell Luminescent Cell Viability Assay), SR; conditions: Homo sapiens, 96 h, read-out: inhibitory activity (IC50, nM) against tumor cells proliferation, SR
CK1α = molecular target: T7, CK1α (Homo sapiens, UniProt P48729+Q96SW2); experiment: Western-blot assay of substrate protein degradation in hPBMCs, CK1α; type: cell-based; conditions: 24 hours of compound treatment, compounds tested at 50 nM and 500 nM (concentration of the table not stated)
T7 construct: endogenous in cells; host or cells: hPBMCs (Milecell Biotechnologies)
T7 sequence (P48729 whole entry): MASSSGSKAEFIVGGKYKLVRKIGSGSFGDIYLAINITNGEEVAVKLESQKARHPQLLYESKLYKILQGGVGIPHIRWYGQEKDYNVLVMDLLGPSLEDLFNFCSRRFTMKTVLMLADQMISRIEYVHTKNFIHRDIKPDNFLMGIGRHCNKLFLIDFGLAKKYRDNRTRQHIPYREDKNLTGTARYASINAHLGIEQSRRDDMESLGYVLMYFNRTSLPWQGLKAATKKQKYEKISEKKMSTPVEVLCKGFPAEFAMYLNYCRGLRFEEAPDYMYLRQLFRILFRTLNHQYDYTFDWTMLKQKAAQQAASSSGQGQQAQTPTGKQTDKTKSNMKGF
T7 sequence (Q96SW2 whole entry): as the sequence (Q96SW2 whole entry) above
T7 sequence (Q16531 whole entry partner): as the sequence (Q16531 whole entry partner) above

CAL-62 = experiment: Tumor cell proliferation inhibition (CellTiter-Meiluncell Luminescent Cell Viability Assay), CAL-62; conditions: Homo sapiens, CAL-62, 96 h, read-out: inhibitory activity (IC50, nM) against tumor cells proliferation, CAL-62
Experimental: as §1, §3, §2

| IC50 (MGC803) | pIC50 [1] | IC50 (Vcap) | IC50 (CCRF-CEM) | IC50 (NCI-H1975) | IC50 (SW620) | IC50 (MM.1R) | IC50 [2] | IC50 [3] | IC50 (Jurkat) | IC50 (SR) | IC50 (CAL-62) | Structure (SMILES) | IKZF 1 substrate protein remaining % (IKZF1) | GSPT1 substrate protein remaining % (GSPT1) | Weel substrate protein remaining % (WEE1) | IKZF3 substrate protein remaining % (IKZF3) | IKZF2 substrate protein remaining % (IKZF2) | CK1a substrate protein remaining % (CK1α) |
| --- | --- | --- | --- | --- | --- | --- | --- | --- | --- | --- | --- | --- | --- | --- | --- | --- | --- | --- |
| 100 to 500 nM | 6.00 to 6.30 | 50 to 100 nM | 5 to 10 nM | 100 to 500 nM | 100 to 500 nM | 10 to 50 nM | 10 to 50 nM | 100 to 500 nM | 5 to 10 nM | 500 to 1000 nM | 10 to 50 nM | O=C1CCC(N2Cc3cc(CN4CCN(c5ccccc5Br)CC4)ccc3C2=O)C(=O)N1 (centres unmarked) [GT-04456, 3-(5-((4-(2-bromophenyl)piperazin-1-yl)methyl)-1-oxoisoindolin-2-yl)piperidine-2,6-dione] | A (0% ≤ substrate protein remaining % ≤ 80%) | A (0% ≤ substrate protein remaining % ≤ 80%) | A (0% ≤ substrate protein remaining % ≤ 80%) | A (0% ≤ substrate protein remaining % ≤ 80%) | A (0% ≤ substrate protein remaining % ≤ 80%) | A (0% ≤ substrate protein remaining % ≤ 80%) |
| 50 to 100 nM | 6.00 to 6.30 | 10 to 50 nM | 1 to 5 nM | 50 to 100 nM | 10 to 50 nM | 5 to 10 nM | 1 to 5 nM | 50 to 100 nM | 1 to 5 nM | 100 to 500 nM | 5 to 10 nM | O=C1CCC(N2Cc3cc(CN4CCN(c5ccc(Cl)cc5)CC4)ccc3C2=O)C(=O)N1 (centres unmarked) [GT-04455, 3-(5-((4-(4-chlorophenyl)piperazin-1-yl)methyl)-1-oxoisoindolin-2-yl)piperidine-2,6-dione] | A (0% ≤ substrate protein remaining % ≤ 80%) | A (0% ≤ substrate protein remaining % ≤ 80%) | A (0% ≤ substrate protein remaining % ≤ 80%) | A (0% ≤ substrate protein remaining % ≤ 80%) | A (0% ≤ substrate protein remaining % ≤ 80%) | A (0% ≤ substrate protein remaining % ≤ 80%) |
| 100 to 500 nM | 5.82 to 6.00 | 10 to 50 nM | 5 to 10 nM | 100 to 500 nM | 100 to 500 nM | 5 to 10 nM | 5 to 10 nM | 100 to 500 nM | 5 to 10 nM | 500 to 1000 nM | 10 to 50 nM | Cc1ccc(N2CCN(Cc3ccc4c(c3)CN(C3CCC(=O)NC3=O)C4=O)CC2)cc1 (centres unmarked) [GT-04463, 3-(1-oxo-5-((4-(p-tolyl)piperazin-1-yl)methyl)isoindolin-2-yl)piperidine-2,6-dione] | A (0% ≤ substrate protein remaining % ≤ 80%) | A (0% ≤ substrate protein remaining % ≤ 80%) | A (0% ≤ substrate protein remaining % ≤ 80%) | A (0% ≤ substrate protein remaining % ≤ 80%) | A (0% ≤ substrate protein remaining % ≤ 80%) | A (0% ≤ substrate protein remaining % ≤ 80%) |
| 50 to 100 nM | 6.00 to 6.30 | 10 to 50 nM | 5 to 10 nM | 50 to 100 nM | 100 to 500 nM | 10 to 50 nM | 5 to 10 nM | 100 to 500 nM | 5 to 10 nM | 100 to 500 nM | 10 to 50 nM | O=C1CCC(N2Cc3cc(CN4CCN(c5cc(Cl)ccc5Cl)CC4)ccc3C2=O)C(=O)N1 (centres unmarked) [GT-04487, 3-(5-((4-(2,5-dichlorophenyl)piperazin-1-yl)methyl)-1-oxoisoindolin-2-yl)piperidine-2,6-dione] | B (80%< substrate protein remaining %≤ 100%) | A (0% ≤ substrate protein remaining % ≤ 80%) | B (80%< substrate protein remaining %≤ 100%) | B (80%< substrate protein remaining %≤ 100%) | A (0% ≤ substrate protein remaining % ≤ 80%) | A (0% ≤ substrate protein remaining % ≤ 80%) |
| 100 to 500 nM | 6.00 to 6.30 | 10 to 50 nM | 5 to 10 nM | 100 to 500 nM | 100 to 500 nM | 10 to 50 nM | 5 to 10 nM | 100 to 500 nM | 5 to 10 nM | 100 to 500 nM | 10 to 50 nM | O=C1CCC(N2Cc3cc(CN4CCN(c5cccc(F)c5)CC4)ccc3C2=O)C(=O)N1 (centres unmarked) [GT-04452, 3-(5-((4-(3-fluorophenyl)piperazin-1-yl)methyl)-1-oxoisoindolin-2-yl)piperidine-2,6-dione] | B (80%< substrate protein remaining %≤ 100%) | A (0% ≤ substrate protein remaining % ≤ 80%) | A (0% ≤ substrate protein remaining % ≤ 80%) | B (80%< substrate protein remaining %≤ 100%) | B (80%< substrate protein remaining %≤ 100%) | A (0% ≤ substrate protein remaining % ≤ 80%) |
| 500 to 1000 nM | 6.00 to 6.30 | 50 to 100 nM | 5 to 10 nM | 100 to 500 nM | 100 to 500 nM | 10 to 50 nM | 5 to 10 nM |  | 5 to 10 nM | 500 to 1000 nM | 10 to 50 nM | O=C1CCC(N2Cc3cc(CN4CCC(c5ccccc5Cl)CC4)ccc3C2=O)C(=O)N1 (centres unmarked) [GT-04468, 3-(5-((4-(2-chlorophenyl)piperidin-1-yl)methyl)-1-oxoisoindolin-2-yl)piperidine-2,6-dione] | A (0% ≤ substrate protein remaining % ≤ 80%) | A (0% ≤ substrate protein remaining % ≤ 80%) | A (0% ≤ substrate protein remaining % ≤ 80%) | A (0% ≤ substrate protein remaining % ≤ 80%) | A (0% ≤ substrate protein remaining % ≤ 80%) | A (0% ≤ substrate protein remaining % ≤ 80%) |

| Structure (SMILES) | IC50 (MGC803) | pIC50 [1] | IC50 (Vcap) | IC50 (CCRF-CEM) | IC50 (NCI-H1975) | IC50 (SW620) | IC50 (MM.1R) | IC50 [2] | IC50 [3] | IC50 (Jurkat) | IC50 (SR) | IC50 (CAL-62) | IKZF 1 substrate protein remaining % (IKZF1) | GSPT1 substrate protein remaining % (GSPT1) | Weel substrate protein remaining % (WEE1) | IKZF3 substrate protein remaining % (IKZF3) | IKZF2 substrate protein remaining % (IKZF2) | CK1a substrate protein remaining % (CK1α) |
| --- | --- | --- | --- | --- | --- | --- | --- | --- | --- | --- | --- | --- | --- | --- | --- | --- | --- | --- |
| O=C1CCC(N2Cc3cc(CN4CC=C(c5cccs5)CC4)ccc3C2=O)C(=O)N1 (centres unmarked) [GT-04494, 3-(1-oxo-5-((4-(thiophen-2-yl)-3,6-dihydropyridin-1(2H)-yl)methyl)isoindolin-2-yl)piperidine-2,6-dione] | 10 to 50 nM | > 6.30 | 1 to 5 nM | 1 to 5 nM | 10 to 50 nM | 5 to 10 nM | < 1 nM | 1 to 5 nM | 10 to 50 nM | < 1 nM | 5 to 10 nM | 1 to 5 nM | B (80%< substrate protein remaining %≤ 100%) | A (0% ≤ substrate protein remaining % ≤ 80%) | A (0% ≤ substrate protein remaining % ≤ 80%) | B (80%< substrate protein remaining %≤ 100%) | A (0% ≤ substrate protein remaining % ≤ 80%) | A (0% ≤ substrate protein remaining % ≤ 80%) |
